Results taken from patent EP4069192B1 (Solis Herrera, Arturo, priority 2019, dated 2021).
Values after ≈ are worked out from the molar mass of the structure shown.

Key:
[1] = test system: A549 cells; experiment: cells; details: Homo sapiens, A549, 96 h
Experimental: (§1) Further, a proliferation test was prepared for the same three cell lines: WI-38, A549 and HS 683. 3x10^4 WI-38 cells and 2x10^4 A549 and HS 683. Cells were seeded into each wells in 96-well culture plates in appropriate culture medium with 10% FBS (fetal bovine serum). […] After 96 hours incubation in 37°C/5%CO2 MTT assay was performed for establishing the cell viability.

[2] = test system: HS-683; experiment: cells; details: Homo sapiens, Hs 683, 96 h
Experimental: as §1

[3] = test system: WI-38 cells; experiment: cells; details: Homo sapiens, WI-38, 96 h
Experimental: as §1

[4] = test system: IFN-γ production
Experimental: (§2) After 24 hours of incubation in 37°C/5%CO2 samples of leukocytes and supernatants were collected.
(§3) Cytokine levels were determined using ELISA kits (BD Biosciences, USA) for human IFNγ, TNF-α and IL-6 and DuoSet for human IL-3 (R&D Systems, USA) according to the producers' instructions. The optical density was measured at 450 nm using a Multiskan RC spectrophotometric reader (Thermo Labsystems, USA), Cytokine concentrations were expressed in pg/ml.

[5] = test system: IL-6 production
Experimental: as §2, §3

[6] = test system: TNF-α production
Experimental: as §2, §3

[7] = test system: H1N1 virus; details: 0,002 mg/kg each 24 hours; 24 hours after treatment; 15000 treated vs 15000 control chicken, control turned down the production of eggs
[8] = rat, in vivo
[9] = in vivo
[10] = test system: A549 (human lung adenocarcinoma epithelial cell line); details: A549, 48 hours, MTT
[11] = test system: HS683 (human neuronal glioma cell line); details: HS-683, 48 hours, MTT
[12] = test system: human PBLs (leukocytes of peripheral blood); details: 48 hours, MTT
Experimental: Thereby, cell viability was determined on the basis of the mitochondria-dependent reduction of MTT (3-[4,5-dimethyltiazol 2yl]-2,5-diphenyltetrazolium bromide) to formazan. […] Next cells were treated with 20 µl of MTT. After 3 hours of incubation at 37°C, the formazan blue formed in the cells was dissolved in 100 µl of SDS (sodium dodecylsulfate) for 3 hours in 37°C. The optical density was measured at 570 nm.
After the cytotoxicity tests LC50 (LC50-lethal concentration, 50%-dose required to kill half of the cells after a specified test duration) were estimated for each cell lines and PBLs (leukocytes of peripheral blood). Additionally for PBLs LC10 and LC5 were calculated.
On the basis of the results of MTT assay for human leukocytes the LC50, LC10 and LC5 were evaluated.

[13] = test system: cell proliferation; experiment: cells; details: Homo sapiens, read-out: doses that inhibit 50% of cell proliferation
[14] = intranasal spray, single 3 mg dose, women, before emergence from general anesthesia; cited from earlier work
[15] = read-out: concentration that inhibits 50% of the proliferation

CN1CCC[C@H]1c1cccnc1
IC50 [1, 15]: 2000 µg/mL (≈ 12.3 mM)
IC99 ([1]; read-out: concentration that inhibits 99% of the proliferation): 5500 µg/mL
IC99 ([2]; read-out: concentration at which 99% of proliferation are inhibited): 5500 µg/mL
IC50 [2, 15]: 2900 µg/mL (≈ 17.9 mM)
IC50 [3, 15]: 1000 µg/mL (≈ 6.16 mM)
IC99 ([3]; read-out: concentration that inhibits a proliferation of 99%): 4500 µg/mL
effect on IFN-γ production [4]: strongly decreases the level of interferon in a dose-dependent manner
effect on IL-6 production [5]: no effect
effect on TNF-α production [6]: increases the level of cytokines in a dose-dependent manner
production of eggs [7]: began to lay off eggs
mortality [8]: 0,625 of 8 rats
healing effect [9]: increased healing effect
LC50 [10]: 4,5 mg/ml
LC50 [11]: 3,5 mg/ml
LC5 [12]: 0,5 mg/ml
LC10 [12]: 1000 µg/mL (≈ 6.16 mM)
IC50 [13]: > 1000 µg/mL
pain scores during the first day post-surgery [14]: significant reduction in pain scores
risks of hypertension of tachycardia [14]: not increasing the risks
